Patent publication US7317038B2, “Nerve regeneration promoters containing semaphorin inhibitor as the active ingredient” (Dainippon Sumitomo Pharma Co., Ltd., priority 2000, dated 2008)
Entries after “also recorded” stand apart in the source; their conditions may differ.

How the values were obtained:
[1] = target: T1, mouse semaphorin 3A (Sema3A) (Mus musculus, UniProt O08665); experiment: Suppression of growth cone collapse activity of Sema3A (chick embryo dorsal root ganglions); assay type: cell-based
T1 sequence (O08665 21-772): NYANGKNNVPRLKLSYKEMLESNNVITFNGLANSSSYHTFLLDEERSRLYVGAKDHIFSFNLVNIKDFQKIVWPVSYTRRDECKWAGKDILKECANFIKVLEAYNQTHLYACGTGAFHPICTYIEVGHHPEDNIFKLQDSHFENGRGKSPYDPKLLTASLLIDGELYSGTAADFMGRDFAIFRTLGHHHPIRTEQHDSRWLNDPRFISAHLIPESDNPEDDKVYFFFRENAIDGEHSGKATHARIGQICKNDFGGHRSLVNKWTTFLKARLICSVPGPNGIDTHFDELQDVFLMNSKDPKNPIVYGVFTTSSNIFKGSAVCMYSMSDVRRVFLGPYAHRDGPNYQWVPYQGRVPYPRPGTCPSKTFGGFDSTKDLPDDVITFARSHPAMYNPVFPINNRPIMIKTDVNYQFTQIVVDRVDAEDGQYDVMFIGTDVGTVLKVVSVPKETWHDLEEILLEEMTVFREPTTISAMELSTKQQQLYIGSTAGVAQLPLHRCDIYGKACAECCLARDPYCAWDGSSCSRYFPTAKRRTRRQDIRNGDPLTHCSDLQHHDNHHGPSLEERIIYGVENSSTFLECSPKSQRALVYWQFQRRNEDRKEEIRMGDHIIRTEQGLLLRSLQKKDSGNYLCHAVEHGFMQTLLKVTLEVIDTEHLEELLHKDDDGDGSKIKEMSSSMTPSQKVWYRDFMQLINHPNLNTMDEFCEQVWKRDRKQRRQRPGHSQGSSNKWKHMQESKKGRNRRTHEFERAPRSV
Protocol: A 96-well plate (Sumitomo Bakelite Co., ltd. ) pre-coated with polylysine was further coated with laminine (20 μg/ml of laminine, for 1 hour at room temperature). Each well was added with 100 μl of medium (F12 medium containing 10% bovine fetal serum, 20 ng/ml of NGF, 100 units/ml of penicillin and 100 μg/ml of streptomycin) which media were then inoculated with dorsal root nerve ganglions excised from E7 (Embryonic day 7) chick embryo and were cultured for 16 to 20 hours under 5% CO2 and at 37° C. Subsequently, the object compounds were added to media at various concentrations and 2 units/ml of mouse semaphorin 3A (Sema3A) was added after cultivating for 1 hour. The cultures were further incubated for another 1 hour. Glutaraldehyde was quickly added therein after said 1 hour to make the final concentration 1%. The cultures were then left for 15 minutes at room temperature so that the tissue sections were fixed, and collapse rates of the growth cones were microscopically observed. A well with no addition of Sema3A was made the control.
The longitudinal and lateral axes in the figures represent the collapse rate of growth cones and the concentration of compounds, respectively. ●▪▴ show the results when Sema3A was added after the addition of the compounds and ◯[…]Δ show those when Sema3A was not added. Further, IC50 (μg/ml) of the inhibitors were determined by the method comprising: calculating the collapse rate of growth cone (A) % of the negative controls (neither compounds nor Sema3a was added); subsequently calculate the collapse rate of growth cone (B) % of the positive controls (compounds were not added but Sema3a was added); and the concentration was chosen for each compound from the chart where the collapse rate of growth cone met (A+B)/2(%), which was made IC50 level. The followings are the results.

[2] = system: sciatic nerves that were crushed; experiment: In vivo nerve regeneration after sciatic nerve crush; details: rat; 1 ug/day locally for 14 days; distal areas of 2 mm and 6 mm from the crush site
Protocol: Male Wister rats were purchased at 7-week-old (CHARLES RIVER JAPAN, INC.) and bred under the light and dark cycles for 12 hours. The rats had free access to solid feedstuff (CLEA Japan, Inc., CE2) and water, and were used in the experiment after about one week of preliminary breeding. Under pentbarbital anesthesia, sciatic nerve of the rat thighs was exposed, clipped for 30 sec with forceps of 5 mm width, and was thus crushed. The crush site was marked with 10-0 nylon thread. SPF-3059-1 was dissolved in PBS at 8.3 ug/ml and was locally administered to the lesion site for 14 consecutive days at a flow rate of 1 ug/day by using an osmotic pressure pump (2ML2, 5 ul/hr, alzet). PBS was administered to the controls. At Day 14 of administration, the sciatic nerves were excised and trimmed at the distal areas from the crush site (the positions of marking) by 2 mm, 6 mm and 10 mm. The incised sciatic nerves were fixed in 2.5% glutaraldehyde/0.1 M phosphate buffer for a day and a night. When they were fixed, nerves were dehydrated by alcohol and were embedded in epoxy resin. […] After the areas of sciatic nerves were measured, the myelinated fiber density was calculated by […].

- IC50 ([1]; E7 chick embryo dorsal root ganglions, 2 units/ml Sema3A added 1 hour after compound, concentration where collapse rate = (A+B)/2, read-out: IC50 of inhibition of the growth cone collapse activity of Sema3A (converted)): < 173 nM
SMILES: CC(=O)c1c(C)c(C(=O)C2COc3cc(O)c(O)c(C(=O)O)c3C2=O)cc2c(=O)c3c(C(=O)O)c(O)c(O)cc3oc12 (stereo not drawn) [SPF-3059-1]
- inhibition of growth cone collapse activity of Sema3A (in words) ([1]; chick embryo dorsal root ganglions): inhibit the growth cone collapse activities of Sema3A in a concentration-dependent manner; also recorded: potently inhibit semaphorin
- myelinated fiber density vs PBS-injected group [2]: increased more
